Assay results as given in patent publication US11324787B2, “Analytical methods and arrays for use in the same” (SENZAGEN AB, priority 2017, dated 2022).
Counter-ions that a name gives are not always drawn. Like-named read-outs stand apart in the source and are kept apart here. One block for each compound: values may come before it.

Legend:
[1] = cited from earlier work; for binary class (HP*): based on human potency [41] where available, otherwise according to CLP; for HP: human potency; for Human potency: class 1 representing highest potency, 6 representing non-sensitizers; for Human potency [41]: test set
[2] = cited from earlier work; for binary class: sens / non-sens; for true CLP: test set
[3] = tested on: myeloid cell line derived from MUTZ-3; experiment: GARD random forest model predicting CLP categories (52 transcripts, Example A); details: test set; for GARD predicted CLP: majority voting across replicates; for predicted CLP: separate replicates
[4] = tested on: myeloid cell line derived from MUTZ-3; experiment: GARD binary classification (SVM on GARD prediction signature, 200 transcripts)
[5] = tested on: myeloid cell line derived from MUTZ-3; experiment: Cytotoxicity / viability by flow cytometry (propidium iodide), 24 hours exposure; details: yes/no; MUTZ-3 derived cells
[6] = chemicals of random forest training and test set
[7] = Table 9, chemicals training set
[8] = CLP annotation of 37 novel chemicals
[9] = Table 8 chemical list, GARD SVM decision value

Compound: CCCCBr [1-brombutane, 1-bromobutane]
binary class (HP*) [1]: NS (5-6 = NS) | CLP ([2]; Table 10, chemicals test set 1): no cat | CLP [2, 6]: no cat | binary class [2, 6]: non-sens | true CLP ([2]; per replicate line): no cat | true CLP [2]: no cat | GARD predicted CLP [3]: no cat | predicted CLP [3]: no cat

Compound: O=[N+]([O-])c1ccc(Cl)c([N+](=O)[O-])c1 [2,4-dinitrochlorobenzene]
HP ([1]; 11 benchmark chemicals): 1 | HP [1, 6]: 1 | CLP ([2]; 11 benchmark chemicals): 1A | binary class ([2]; 11 benchmark chemicals): sens | CLP [2, 7]: 1A | CLP [2, 6]: 1A | binary class [2, 6]: sens

Compound: O=[N+]([O-])c1ccc(F)c([N+](=O)[O-])c1 [2,4-dinitrofluorobenzene, 2,4-Dinitrofluorobenzene]
binary class (HP*) [1]: S (HP 1-4 = S) | GARD binary prediction ([4]; SVM, median calibrated decision value of replicates >0 = sensitizer): S | CLP [2, 8]: 1A | CLP [2, 7]: 1A | CLP [2, 6]: 1A | binary class [2, 6]: sens

Compound: Nc1ccccc1O [2-aminophenol]
HP ([1]; 11 benchmark chemicals): 2 | Human potency [1]: 2 | HP [1, 6]: 2 | SVM DV [4, 9]: 5.98

Compound: C=CC(=O)OCCO [2-hydroxyethyl acrylate]
SVM DV [4, 9]: 8.87

Compound: Sc1nc2ccccc2s1 [2-mercaptobenzothiazole]
Human potency [1]: 3 | HP [1, 6]: 3 | SVM DV [4, 9]: 2.52 | CLP [2, 7]: 1A | CLP [2, 6]: 1A | binary class [2, 6]: sens

Compound: O=[N+]([O-])c1ccc(CBr)cc1 [4-nitrobenzylbromide]
CLP [2, 7]: 1A | CLP [2, 6]: 1A | binary class [2, 6]: sens

Compound: OC/C=C/c1ccccc1 [Cinnamic alcohol]
Human potency [1]: 3 | SVM DV [4, 9]: 2.94

Compound: Nc1ccc(C(=O)O)cc1 [PABA]
Human potency [1]: 5 | SVM DV [4, 9]: −1.04

Compound: Nc1ccc(N)cc1 [PPD]
Human potency [1]: 1 | SVM DV [4, 9]: 5.32

Compound: CC1(C)S[C@@H]2[C@H](NC(=O)Cc3ccccc3)C(=O)N2[C@H]1C(=O)O [Penicillin G]
Human potency [1]: 3 | SVM DV [4, 9]: 1.06

Compound: CC(O)CO (centres unmarked) [Propylene glycol]
Human potency [1]: 5 | SVM DV [4, 9]: −1.18

Compound: CCCCCCCCCCCCOS(=O)(=O)[O-].[Na+] [Sodium lauryl sulfate]
SVM DV [4, 9]: −1.52

Compound: CCCCCCCC/C=C\CCCCCCCC(=O)OCCOCC(OCCO)C1OCC(OCCO)C1OCCO (centres unmarked) [Tween 80]
Human potency [1]: 6 | HP [1, 6]: 6 | SVM DV [4, 9]: −1.39 | CLP [2, 7]: no cat | CLP [2, 6]: no cat | binary class [2, 6]: non-sens

GARD predicted CLP [3]: 1B | predicted CLP [3]: 1B
Compound: CC=Cc1ccc(OC)cc1 [anethole]
binary class (HP*) [1]: NS (5-6 = NS) | HP [1, 6]: 5 | Human potency [41] [1]: 5

Compound: O=Cc1ccccc1 [benzaldehyde]
SVM DV [4, 9]: −2.13

Compound: O=C(O)c1ccccc1 [benzoic acid]
binary class (HP*) [1]: NS (5-6 = NS) | CLP ([2]; Table 10, chemicals test set 1): no cat | CLP [2, 6]: no cat | binary class [2, 6]: non-sens | true CLP ([2]; per replicate line): no cat | true CLP [2]: no cat | GARD predicted CLP [3]: no cat | predicted CLP [3]: no cat

Compound: OCc1ccccc1 [benzyl alcohol]
binary class (HP*) [1]: NS (5-6 = NS) | cytotox [5]: no | CLP [2, 7]: no cat | CLP [2, 6]: no cat | binary class [2, 6]: non-sens

Compound: Clc1ccccc1 [chlorobenzene]
SVM DV [4, 9]: −1.63

Compound: OCC=Cc1ccccc1 [cinnamyl alcohol]
HP [1, 6]: 3 | CLP [2, 7]: 1B | CLP [2, 6]: 1B | binary class [2, 6]: sens

Compound: O=C(O)CC(O)(CC(=O)O)C(=O)O [citric acid]
cytotox [5]: no

Compound: OCCNCCO [diethanolamine]
binary class (HP*) [1]: NS (5-6 = NS) | HP [1, 6]: 5 | cytotox [5]: no | CLP [2, 8]: 1B | CLP [2, 7]: 1B | CLP [2, 6]: 1B | binary class [2, 6]: sens

GARD predicted CLP [3]: 1A | predicted CLP [3]: 1A
Compound: CCOC(=O)/C=C\C(=O)OCC [diethyl maleate]
HP [1, 6]: 2 | Human potency [41] [1]: 2 | CLP ([2]; Table 10, chemicals test set 1): 1B | CLP [2, 6]: 1B | binary class [2, 6]: sens | true CLP ([2]; per replicate line): 1B | true CLP [2]: 1B

Compound: CCOC(=O)c1ccccc1C(=O)OCC [diethyl phthalate]
HP [1, 6]: 6 | SVM DV [4, 9]: −2.15 | CLP ([2]; Table 10, chemicals test set 1): no cat | CLP [2, 6]: no cat | binary class [2, 6]: non-sens | true CLP ([2]; per replicate line): no cat | true CLP [2]: no cat | GARD predicted CLP [3]: no cat | predicted CLP [3]: no cat

Compound: C[S+](C)[O-] [dimethyl sulfoxide]
HP [1, 6]: 6 | CLP [2, 6]: no cat | binary class [2, 6]: non-sens

Compound: O=c1c(-c2ccccc2)c1-c1ccccc1 [diphenylcyclopropenone]
HP [1, 6]: 1 | CLP [2, 7]: 1A | CLP [2, 6]: 1A | binary class [2, 6]: sens

Compound: NCCN [ethylenediamine]
SVM DV [4, 9]: 1.12

Compound: C=CCc1ccc(O)c(OC)c1 [eugenol]
SVM DV [4, 9]: 1.02

Compound: C=O [formaldehyde]
SVM DV [4]: 2.32

Compound: CC(C)=CCC/C(C)=C/CO [geraniol]
SVM DV [4, 9]: 1.76

Compound: OCC(O)CO [glycerol]
Human potency [1]: 6 | HP [1, 6]: 6 | SVM DV [4, 9]: −2.05

Compound: O=CC=O [glyoxal]
SVM DV [4, 9]: 1.08

Compound: CCCCCC [hexane]
HP [1, 6]: 6 | CLP [2, 7]: no cat | CLP [2, 6]: no cat | binary class [2, 6]: non-sens

Compound: CCCCCCC(C=O)=Cc1ccccc1 [hexylcinnamic aldehyde]
HP ([1]; 11 benchmark chemicals): 5 | Human potency [1]: 5 | HP [1, 6]: 5 | SVM DV [4, 9]: 1.24 | CLP ([2]; 11 benchmark chemicals): 1B | binary class ([2]; 11 benchmark chemicals): sens | CLP [2, 7]: 1B | CLP [2, 6]: 1B | binary class [2, 6]: sens

Compound: Oc1ccc(O)cc1 [hydroquinone]
HP [1, 6]: 3 | CLP [2, 7]: 1A | CLP [2, 6]: 1A | binary class [2, 6]: sens

Compound: CC(CC=O)CCCC(C)(C)O (centres unmarked) [hydroxycitronellal]
HP [1, 6]: 4 | CLP [2, 7]: 1B | CLP [2, 6]: 1B | binary class [2, 6]: sens

Compound: CC=Cc1ccc(O)c(OC)c1 [isoeugenol]
HP [1, 6]: 2 | CLP [2, 7]: 1A | CLP [2, 6]: 1A | binary class [2, 6]: sens

Compound: CC(C)O [isopropanol]
Human potency [1]: 5 | HP [1, 6]: 5 | SVM DV [4, 9]: −1.37 | CLP [2, 7]: no cat | CLP [2, 6]: no cat | binary class [2, 6]: non-sens

Compound: NC[C@H]1O[C@H](O[C@H]2[C@H](O)[C@@H](O[C@H]3O[C@H](CO)[C@@H](O)[C@H](N)[C@H]3O)[C@H](N)C[C@@H]2N)[C@H](O)[C@@H](O)[C@@H]1O [kanamycin A]
binary class (HP*) [1]: NS (5-6 = NS) | CLP [2, 7]: no cat | CLP [2, 6]: no cat | binary class [2, 6]: non-sens

Compound: CC(O)C(=O)O (centres unmarked) [lactic acid]
HP [1, 6]: 6 | SVM DV [4, 9]: −2.38

Compound: CCCCCCCCCCCCOC(=O)c1cc(O)c(O)c(O)c1 [lauryl gallate]
HP [1, 6]: 2 | CLP [2, 7]: 1A | CLP [2, 6]: 1A | binary class [2, 6]: sens

Compound: CC(C=O)Cc1ccc(C(C)(C)C)cc1 (centres unmarked) [lilial]
binary class (HP*) [1]: S (HP 1-4 = S) | CLP [2, 8]: 1B | CLP [2, 7]: 1B | CLP [2, 6]: 1B | binary class [2, 6]: sens

Compound: COC(=O)c1ccccc1O [methyl salicylate]
Human potency [1]: 5 | HP [1, 6]: 5 | SVM DV [4, 9]: −1.53 | CLP [2, 7]: no cat | CLP [2, 6]: no cat | binary class [2, 6]: non-sens

Compound: N#CCCC(Br)(C#N)CBr (centres unmarked) [methyldibromo glutaronitrile]
HP [1, 6]: 2 | CLP [2, 7]: 1A | CLP [2, 6]: 1A | binary class [2, 6]: sens

Compound: CCCCCCCC(=O)O [octanoic acid]
Human potency [1]: 6 | HP [1, 6]: 6 | SVM DV [4, 9]: −1.19 | CLP [2, 7]: no cat | CLP [2, 6]: no cat | binary class [2, 6]: non-sens

Compound: O=C(O)c1ccc(O)cc1 [p-hydroxybenzoic acid]
CLP [2, 7]: no cat | CLP [2, 6]: no cat | binary class [2, 6]: non-sens

Compound: Nc1ccc(N)cc1 [p-phenylenediamine]
CLP ([2]; 11 benchmark chemicals): 1A | binary class ([2]; 11 benchmark chemicals): sens | CLP [2, 7]: 1A | CLP [2, 6]: 1A | binary class [2, 6]: sens

Compound: Oc1ccccc1 [phenol]
SVM DV [4]: −1.08

Compound: O=C(Oc1ccccc1)c1ccccc1 [phenyl benzoate]
HP [1, 6]: 3 | CLP [2, 7]: 1B | CLP [2, 6]: 1B | binary class [2, 6]: sens

Compound: O=CCc1ccccc1 [phenylacetaldehyde]
CLP [2, 7]: 1B | CLP [2, 6]: 1B | binary class [2, 6]: sens

Compound: [K+].[K+].[O]=[Cr](=[O])([O-])[O][Cr](=[O])(=[O])[O-] [potassium dichromate]
CLP [2, 7]: 1A | CLP [2, 6]: 1A | binary class [2, 6]: sens

Compound: CCCOC(=O)c1cc(O)c(O)c(O)c1 [propyl gal late]
CLP ([2]; Table 10, chemicals test set 1): 1A

Compound: Oc1cccc(O)c1 [resorcinol]
HP ([1]; 11 benchmark chemicals): 4 | Human potency [1]: 4 | HP [1, 6]: 4 | SVM DV [4, 9]: 1.03

Compound: O=C(O)c1ccccc1O [salicylic acid]
Human potency [1]: 6 | HP [1, 6]: 6 | SVM DV [4, 9]: −1.41

Compound: O=C(O)C(O)C(O)C(=O)O (centres unmarked) [tartaric acid]
cytotox [5]: no

Compound: chloroanilin
CLP [2, 7]: 1B | CLP [2, 6]: 1B | binary class [2, 6]: sens

Compound: xylene
HP [1, 6]: 6 | Human potency [41] [1]: 6
